Test results taken from article PMC9118553, “In Vivo Bioconcentration of 10 Anionic Surfactants in Rainbow Trout Explained by In Vitro Data on Partitioning and S9 Clearance” (Environmental Science & Technology, 2022).
Read-outs that look alike come from different tables or passages of the source.

Legend:
[1] = RT-S9 substrate depletion assay, individual compounds, with IVIVE; settings: for CLint,S9 / CLint,in vivo set to LOD/3 for extrapolation: s9
Procedure: The in vitro intrinsic clearance by the S9 fraction of rainbow trout liver was measured for the same 11 anionic surfactants used in the BCF experiment as separate compounds. […] An established RT-S9 substrate depletion assay was employed,[25]−[27] predating the currently available OECD guideline 319B.[28] A single batch of the characterized liver homogenate material was prepared at the US EPA lab in Duluth and shipped on dry ice to the testing facilities at the University of Amsterdam. The test was conducted using the same method applied for a series of cationic surfactants in Droge et al.[29] and is summarized together with the in vitro–in vivo extrapolation in Text S4.
(§1) Text S4: Trout liver S9 parent depletion assay details and IVIVE
(§2) Liver tissue was separately pooled from the same five rainbow trout (three males/two females, ~300 g, liver weight ~3 g) used also for the RT-S9 study on a series of cationic surfactants (Droge et al., 2021b). The liver sample was homogenized in an appropriate buffer and then centrifuged to yield a 13,000 x g supernatant (the ‘S9 fraction’, lacking only mitochondrial fractions). No further refinement towards microsomal fractions was made to remove cytosolic and lysosomal components.
(§3) Upon arrival at the University of Amsterdam the liver
(§4) S9 material was stored in a -80 °C freezer until use.
(§5) Individual chemicals were first dissolved in methanol and then further diluted to 20% methanol in 100 mM phosphate buffer to make a ~20 µM stock solution, which was then spiked as 10 µL in 190 µL of active S9 mixture. The active S9 mixture consisted of 100 mM potassium phosphate-buffered saline (PPBS) adjusted to pH 7.8, 2 mM β-NADPH, 2 mM UDPGA, 0.1 mM PAPS, 5 mM GSH, 10 μg/mL alamethicin (in methanol carrier; 0.1% v/v final concentration), and 2 mg/mL S9 protein. The substrate depletion assays were performed using the multiple vial method described in OECD TG 319B, employing two or three separately spiked series.
(§6) Reactions were performed at 11 °C in a temperature-controlled water bath (B. Braun Frigomix-R) that was placed on a 2 cm travel path shaker (Gerhardt LS 10) set at 45 rpm. As a positive […]
(§7) alkylsulfonates, no additional assays with inactivated RT-S9 were performed.
(§8) Reactions were quenched with 600 µL ice-cold acetonitrile. After 10 s vortexing and 5 min centrifugation (Hermle Z300, 2500 rpm), 100 µL clear supernatant was transferred into 300 µL glass inserts placed in new autosampler vials, and mixed with 100 µL pure water. Concentrations were measured using a Prominence UFLC-XR system (Shimadzu) coupled to a tandem mass spectrometer (QTRAP 4000, Applied Biosystems) with a Turbo Ion spray source operated at 400 ◦C. For chromatographic separations, a 100 x 2.1mm x 2.7 µm Supelco Ascentis Express column was used (40 °C), with eluent A: pure water with 2 mM ammonium acetate, and eluent […]
(§9) prepared in 50% acetonitrile/water, calibration curves used covered at least four points in a log-linear range. The lowest external standard to fit the log-linear calibration curve served as limit of quantification, requiring a peak of at least 10x the average noise.
(§10) Each vial was treated as an independent vial with recorded exposure time. Log-transformed concentration data of the parent compound were plotted against exposure time (min) and analysed using Graphpad PRISM 8. […]
(§11) the slope (min-1) was multiplied by -2.3 and by 60 (min h-1) to obtain a first order depletion rate […]
(§12) Extrapolation of kdep to whole body rate biotransformation rate constant (kB-S9) The basic approach to extrapolate first order depletion rate constants (k dep) to whole body

[2] = RT-S9 substrate depletion assay, mixture of 9 anionic surfactants (AnionMixture); settings: for Slope of depletion curve (log concentration vs time): tested in a mixture
Procedure: An established RT-S9 substrate depletion assay was employed,[25]−[27] predating the currently available OECD guideline 319B.[28] A single batch of the characterized liver homogenate material was prepared at the US EPA lab in Duluth and shipped on dry ice to the testing facilities at the University of Amsterdam. The test was conducted using the same method applied for a series of cationic surfactants in Droge et al.[29] and is summarized together with the in vitro–in vivo extrapolation in Text S4.
as §1, §2, §3, §4, §5, §6, §7, §8, §9, §10, §11, §12

[3] = Baseline screening BCF (0.0125 DMLW, equilibrium partitioning, no biotransformation); settings: for Log baseline BCF: determined as 0.0125 DMLW
Text: Recently, the concept of a baseline screening BCF was introduced for surfactants, based on equilibrium partitioning assuming no biotransformation.[19] The baseline screening BCF for the study chemicals exceeded the measured BCF by 1–2.5 orders of magnitude (Table S16), providing further evidence that biotransformation is an important factor influencing the elimination—and thereby the BCF—of the anionic surfactants studied here in rainbow trout. The deviation of PFOA and PFOS from the regression between BCF and DMLW (Figure 1, upper panel) is attributable to them not being biotransformed.
Table S16: Comparison of the BCF (determined with the measured concentrations in water) and the baseline screening BCF (determined as 0.0125 DMLWa)
CHEMICAL Log BCF Log baseline BCF Log difference […]
a Droge, S. T. J.; Scherpenisse, P.; Arnot, J. A.; Armitage, J. M.; McLachlan, M. S.; Nichols, J.; von der Ohe, P.; Bonnell, M.; Hodges, G. Screening the baseline fish bioconcentration potential of various types of surfactants using phospholipid binding data. Environ. Sci.: Processes Impacts

[4] = parameters: method as in REACH dossier; settings: method as noted in the cell (shake flask, solubility ratio, HPLC, BCFBAF, pH); ref REACH dossier; cited from earlier work
[5] = both, rainbow trout, 1 µM, pH 7.8

kB-S9, biotransformation rate constant from in vitro RT-S9 assay [1]	reaction rate set to LOD/3 for extrapolation [1]	CLint,S9 [1]	CLint,in vivo set to LOD/3 for extrapolation [1]	Slope of depletion curve (log concentration vs time) [2]	Log difference (baseline BCF vs BCF) [3]	Log baseline BCF [3]	clearance rate lower in AnionMixture compared to single compound assay (factor) [2]	factor by which kB-S9 was less than kB-BCF [1]	SMILES	factor by which kB-S9 was less than kB-BCF [1, 5]	kB-S9, biotransformation rate constant from in vitro RT-S9 assay [1, 5]	Slope of depletion curve (log concentration vs time) ([1]; tested individually, 2 mg/mL S9 protein, 11 °C)	LogKow [4]
0.002 ^h h^–1	0.05 h⁻¹	n.s.	~ 3.5 mL h-1 g liver-1	-0.0008 min-1	1.15 L kg-1 ww	4.29 L kg-1 ww			CCCCCCCCCCCCCCCCS(=O)(=O)O [C16SO3, hexadecylsulfonate]				
0.225 (0.21–0.24) h^–1		3.05 mL h-1 mg protein-1			2.35 L kg-1 ww	1.49 L kg-1 ww			CCCCCCCCCCCS(=O)(=O)O [C11SO3, undecylsulfonate]				
0.032 (0.028–0.036) h^–1		0.45 mL h-1 mg protein-1			1.90 L kg-1 ww	2.56 L kg-1 ww			CCCCCCCCCCCCCS(=O)(=O)O [C13SO3, tridecylsulfonate]				
0.002 ^h h^–1	0.05 h⁻¹	n.s.	~ 3.5 mL h-1 g liver-1	-0.0010 min-1	1.58 L kg-1 ww	3.05 L kg-1 ww		11	CCCCCCCCCCCCCCS(=O)(=O)O [C14SO3, tetradecylsulfonate]				

Second part, the compound before the results:

SMILES	kB-S9, biotransformation rate constant from in vitro RT-S9 assay [1]	reaction rate set to LOD/3 for extrapolation [1]	CLint,S9 [1]	CLint,in vivo set to LOD/3 for extrapolation [1]	Slope of depletion curve (log concentration vs time) [2]	Log difference (baseline BCF vs BCF) [3]	Log baseline BCF [3]	clearance rate lower in AnionMixture compared to single compound assay (factor) [2]	factor by which kB-S9 was less than kB-BCF [1]	factor by which kB-S9 was less than kB-BCF [1, 5]	kB-S9, biotransformation rate constant from in vitro RT-S9 assay [1, 5]	Slope of depletion curve (log concentration vs time) ([1]; tested individually, 2 mg/mL S9 protein, 11 °C)	LogKow [4]
CCCCCCCCCCS(=O)(=O)O [C10SO3, decylsulfonate]	0.366 (0.33–0.40) h^–1		4.54 mL h-1 mg protein-1		-0.0111 min-1	2.48 L kg-1 ww	1.11 L kg-1 ww	6					
CCCCC(CC)COC(=O)CC(C(=O)OCC(CC)CCCC)S(=O)(=O)O (centres unmarked) [DOSS, bis(2-ethylhexyl)sulfosuccinate]			0.14 mL h-1 mg protein-1		-0.0021 min-1	2.53 L kg-1 ww	2.68 L kg-1 ww			6	0.011 (0.009–0.013) h^–1	-0.0021 min-1	2
CCCCCCCCCCc1ccc(S(=O)(=O)O)cc1 [C10-1-LAS, 1-n-(p-sulfophenyl)decane]	0.041 (0.037–0.045) h^–1		0.61 mL h-1 mg protein-1		-0.0050 min-1	1.99 L kg-1 ww	3.20 L kg-1 ww	twofold					
CCCCCCCCCCCCOCCOCCOCCOCCOS(=O)(=O)O [C12-EO4-SO4, dodecyltetraethoxysulfate]	0.084 (0.059–0.109) h^–1		1.30 mL h-1 mg protein-1		-0.0216 min-1	2.38 L kg-1 ww	2.34 L kg-1 ww						
CCCCCCCCCCCCCOS(=O)(=O)O [C13SO4, tridecylsulfate]	0.028 (0.022–0.034) h^–1		0.40 mL h-1 mg protein-1		-0.0042 min-1	1.78 L kg-1 ww	3.31 L kg-1 ww						
CCCCCCCCCCCOS(=O)(=O)O [C11SO4, undecylsulfate]	0.151 (0.136–0.166) h^–1		2.81 mL h-1 mg protein-1		-0.0202 min-1	2.37 L kg-1 ww	2.26 L kg-1 ww	twofold					
